Results on eight compounds are retold here after patent EP1614683B1, “Indazole compounds and pharmaceutical compositions for inhibiting protein kinases, and methods for their use” (priority 1999, dated 2001).

The term inhibition denotes the share of the control response that was lost under treatment. Broadly, the IC50 is the midpoint of a concentration-inhibition curve. One may read the Ki as the dissociation constant of the complex between target and ligand, obtained from inhibition or displacement. Read a low Ki as tighter binding. For orientation: % Inhibition means the change of the read-out against control, counted positive when it falls. A higher % Inhibition goes with a response far below the control.

Where two headings read alike, the source gives them in different places.

One data set concerns the target human FGF-R1 (Homo sapiens, UniProt P11362, C488A/C584S/L457V). In words: FGF-R spectrophotometric assay. The format is biochemical. The settings on record: Table 1; compound concentration 1 µM; read-out: FGF-P* (% inhibition). The procedure: The spectrophotometric assay was carried out as described above for VEGF-R2, except for the following changes in concentration: FGF-R = 50 nM, ATP = 2 mM, and poly(E4Y1) =15 mM.

A further data set has as its target LCK tyrosine kinase (Homo sapiens, UniProt P06239, C224D/P223M). In words: LCK spectrophotometric assay. Conditions: Table 1; compound concentration 1 µM; read-out: Lck-P* (% inhibition). In kind it is biochemical. The procedure:
The spectrophotometric assay was carried out as described above for VEGF-R2, except for the following changes in concentration: LCK = 60 nM, MgCl2 = 0 mM, poly(E4Y1) = 20 mM.

In data set [1] the test system is lung cancer cells (line MV522). Briefly: Cancer cell proliferation (MV522) assay. In kind it is cell-based. Conditions: MV522; Table 1; read-out: MV522 IC50. In a few lines: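 MTT reduction read-out was taken 72 h after addition of test agents, with no prior serum starvation. Cells were plated beforehand at two thousand per well in RPMI1640 containing 10% FBS and 2 mM glutamine and allowed one day to adhere.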

Data set [2] has as its target unphosphorylated VEGF-R2Δ50 (Homo sapiens, UniProt P35968, DEL940-989/E990V). Briefly: biochemical.
Data set [3] deals with phosphorylated VEGF-R2Δ50 (Homo sapiens, UniProt P35968, DEL940-989/E990V). Briefly: biochemical. Conditions: for inhibition at 1 µM: read-out: FLVK-P* (% inhibition); for inhibition at 0.05 µM: read-out: FLVK -P** (% inhibition).
The target in another data set is T1, human CHK1 (FL-CHK1) (Homo sapiens, UniProt O14757).
T1 construct: C-terminally His-tagged full-length human CHK1 (FL-CHK1) was expressed using the baculovirus/insect cell system; made in house; host or cells: baculovirus/insect cell system
T1 sequence (O14757 1-476): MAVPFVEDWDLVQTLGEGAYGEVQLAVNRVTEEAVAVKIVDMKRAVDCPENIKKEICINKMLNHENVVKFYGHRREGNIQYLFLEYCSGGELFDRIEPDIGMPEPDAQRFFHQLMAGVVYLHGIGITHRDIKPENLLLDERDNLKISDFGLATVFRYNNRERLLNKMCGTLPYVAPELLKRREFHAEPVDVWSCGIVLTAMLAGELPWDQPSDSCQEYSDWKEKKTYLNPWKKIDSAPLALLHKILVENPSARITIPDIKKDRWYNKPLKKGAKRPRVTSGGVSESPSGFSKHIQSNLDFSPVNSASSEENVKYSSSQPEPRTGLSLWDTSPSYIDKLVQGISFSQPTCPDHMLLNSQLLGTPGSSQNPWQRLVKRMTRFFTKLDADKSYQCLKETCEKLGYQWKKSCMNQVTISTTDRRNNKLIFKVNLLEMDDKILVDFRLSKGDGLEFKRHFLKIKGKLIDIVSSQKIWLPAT
In words: CHK1 coupled spectrophotometric assay. In kind it is biochemical. The settings on record: read-out: CHK1* (% inhibition). In a few lines: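 His-tagged full-length human CHK1 from baculovirus/insect cells, 10 nM, phosphorylating Syntide-2. ADP formation coupled via PK/LDH with PEP to NADH oxidation, followed as absorbance decrease at 340 nm. Ki from initial rates at varying compound concentrations.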

In data set [4] the test system is human umbilical vein endothelial cells (HUVEC). In words: HUVEC proliferation assay (VEGF-stimulated, MTT). In kind it is cell-based. Conditions: Homo sapiens, HUVEC, Table 1.
A further data set can be described thus: in vitro. In kind it is in vitro ADME, human. The settings on record: human liver microsomes, 5 µM test compound, 37 °C, 2 h. The method in brief: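 HLM diluted to 5 mg/mL in 100 mM KPO4, preincubated 10 min at 37 °C with NADPH-regenerating system. Compound (5 µM final) incubated at 37 °C in triplicate, sampled at 0 and 2 h into ice-cold acetonitrile, then LC-MS analysis.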
(In general: Liver microsomes are vesicles of endoplasmic reticulum, rich in cytochrome P450 enzymes.)

Data set [5] relates to VEGF dependent retinal vascular development. Briefly: In vivo assay of retinal vascular development in neonatal rats. Set-up: species or system rat. The settings on record: vehicle PEG/water 70:30. In a few lines:
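Neonatal rats given compound by intravitreal injection, vehicle usually 50% PEG 400/50% 300 mM sucrose, with vehicle in contralateral eye. Retinas removed six days later, ADPase-stained and flat-mounted; stained vessel area quantified by imaging and expressed as percent regression versus vehicle eye.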

Data set [6] has as its system VEGF dependent retinal neovascularization. In words: Neonatal rat model of retinopathy of prematurity. The settings on record: Model ROP, intravitreal, vehicle PEG/water 70:30. The format is in vivo.
[7] abbreviates: + albumin, read-out: HUVEC + albumin IC50.

Chain of phosphorylated VEGF-R2Δ50 (P35968 with tags, fused parts or gaps DEL940-989/E990V limits assumed): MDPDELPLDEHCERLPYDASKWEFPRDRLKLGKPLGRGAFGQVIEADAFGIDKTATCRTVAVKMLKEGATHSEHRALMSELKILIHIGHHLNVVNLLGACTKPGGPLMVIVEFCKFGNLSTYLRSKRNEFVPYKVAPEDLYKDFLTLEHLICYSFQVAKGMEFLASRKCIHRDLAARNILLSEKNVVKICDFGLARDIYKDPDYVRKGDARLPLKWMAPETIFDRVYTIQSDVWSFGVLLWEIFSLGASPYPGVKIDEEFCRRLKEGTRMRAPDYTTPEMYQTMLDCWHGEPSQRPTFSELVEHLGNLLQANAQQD
Chain of human FGF-R1 (P11362 456-766 L457V/C488A/C584S): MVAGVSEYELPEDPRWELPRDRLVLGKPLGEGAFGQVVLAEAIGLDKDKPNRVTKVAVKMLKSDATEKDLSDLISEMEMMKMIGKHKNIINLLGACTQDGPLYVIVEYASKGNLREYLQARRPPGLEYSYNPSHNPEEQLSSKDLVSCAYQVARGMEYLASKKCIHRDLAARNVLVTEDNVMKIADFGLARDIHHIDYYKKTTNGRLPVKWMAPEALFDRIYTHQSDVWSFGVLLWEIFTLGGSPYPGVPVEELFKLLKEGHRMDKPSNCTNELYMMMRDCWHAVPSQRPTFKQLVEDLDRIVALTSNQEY
Chain of LCK tyrosine kinase (P06239 223-509 P223M/C224D): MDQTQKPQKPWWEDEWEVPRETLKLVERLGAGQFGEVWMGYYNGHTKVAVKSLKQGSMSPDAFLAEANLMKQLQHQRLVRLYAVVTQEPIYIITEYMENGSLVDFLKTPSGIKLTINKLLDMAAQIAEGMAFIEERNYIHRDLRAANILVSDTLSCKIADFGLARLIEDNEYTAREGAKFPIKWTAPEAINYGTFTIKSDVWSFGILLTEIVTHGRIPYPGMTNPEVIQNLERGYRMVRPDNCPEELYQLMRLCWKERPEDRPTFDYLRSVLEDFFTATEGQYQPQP
Chain of unphosphorylated VEGF-R2Δ50 (P35968 with tags, fused parts or gaps DEL940-989/E990V limits assumed): as the sequence (P35968 with tags, fused parts or gaps DEL940-989/E990V limits assumed) above

Consider `CC(=O)NC(C(=O)Nc1cccc(C(=O)c2ccc3c(/C=C/c4ccccc4)n[nH]c3c2)c1)c1ccccc1` (stereo not shown) [19(i), 6-[3-(2-acetamido-2-phenylacetamido)benzoyl]-3-E-styryl-1H-indazole], for which the inhibition at 1 µM at human FGF-R1 turned out to be 88%; at LCK tyrosine kinase, 36%. Also, the IC50 in [1] came out at 3800 nM. The Ki was 0.72 nM in data set [2] and 4.7 nM in data set [3].

In the case of `CCc1cc(O)ccc1-c1ccc2c(-c3nc4ccccc4[nH]3)n[nH]c2c1` [24(e), 3-1H-Benzoimidazol-2-yl-6-(2-ethyl-4-hydroxyphenyl)-1H-indazole], the inhibition at 1 µM on human CHK1 (FL-CHK1) (Table 2, compound concentration 1 µM, NI = no significant inhibition) is 75%; in data set [3], 52%.

Turning to `Oc1ccc(-c2ccc3c(-c4nc5ccccc5[nH]4)n[nH]c3c2)c(O)c1` [24(f), 3-1H-Benzoimidazol-2-yl-6-(2,4-dihydroxyphenyl)-1H-indazole], the figures for the inhibition at 1 µM (on human CHK1 (FL-CHK1); in data set [3]) were 97% and 89%, respectively.

For the compound `O=C(NC1CC1)c1ccccc1Sc1ccc2c(/C=C/c3ccccn3)n[nH]c2c1` [Reference Example 33(e), 6-[2-(cyclopropylcarbamoyl)phenylsulfanyl]-3-E-[2-(pyridin-2-yl)ethenyl]-1H--1H-indazole], the inhibition at 1 µM on human FGF-R1 stood at 68%; on LCK tyrosine kinase it was 2%. Further, the IC50 in data set [4] (setting [7]) amounted to 5 nM; in data set [4] (read-out: HUVEC IC50), 0.46 nM. The “% remain (HLM, 2 h)” value in “in vitro” was determined as 54%. The “% Inhibition” value in data set [5] (Model P8, intravitreal, 5 mg/ml) was determined as 22%. Also, the inhibition at 0.05 µM in [3] stood at 70%.

On to `O=C(Nc1ccc(N2CCNCC2)c(C(F)(F)F)c1)c1ccccc1Sc1ccc2c(/C=C/c3ccccc3)n[nH]c2c1` [Reference Example 38(b), 6-[2-((4-piperizin-1-yl-3-trifluoromethylphenyl)carbamoyl)phenylsulfanyl]-3-E-(2-styryl)-1H-indazole], for which the IC50 in data set [4] (read-out: HUVEC IC50) is 79 nM. The inhibition at 0.05 µM in [3] was 72%.

Regarding `C/C=C/C(=O)Nc1cccc(C(=O)c2ccc3c(/C=C/c4ccccn4)n[nH]c3c2)c1` [Reference Example 41(c), 6-(3-crotonylamidobenzoyl)-3-E-[2-(pyridio-2-yl)ethenyl]-1H-indazole], the inhibition at 1 µM was found to be 77% at human FGF-R1 and 36% on LCK tyrosine kinase. Besides, the results for the IC50 in data set [4] (setting [7]) and in [4] (read-out: HUVEC IC50) were 5.3 nM and 0.4 nM, respectively. The “% remain (HLM, 2 h)” value in the data set “in vitro” is listed as 68%. In data set [3], the inhibition at 0.05 µM is 83%.

As for `O=C(Cc1cc(F)cc(F)c1)Nc1cccc(C(=O)c2ccc3c(/C=C/c4ccccn4)n[nH]c3c2)c1` [Reference Example 41(f), 6-[3-(3,5-difluorophenylacetamido)benzoyl]-3-E-[2-(pyridin-2-yl)ethenyl]-1H-indazole], the inhibition at 1 µM is 92% on human FGF-R1 and 65% at LCK tyrosine kinase. Moreover, the “% remain (HLM, 2 h)” value in the data set “in vitro” was determined as 59%. The inhibition at 0.05 µM in data set [3] was found to be 84%.

Take `O=C(Nc1cccc(C(=O)c2ccc3c(/C=C/c4ccccn4)n[nH]c3c2)c1)c1ccccc1` [Reference Example 42(a), 6-(3-Benzamidobenzoyl)-3-E-[2-(pyridin-2-yl)ethenyl]-1H-indazole]: the values for the half-maximal inhibitory concentration (IC50) in data set [4] (setting [7]) and in data set [1] were […] and 5500 nM, respectively. Moreover, the “% remain (HLM, 2 h)” value in the data set “in vitro” turned out to be 92%. The “% Inhibition” value was determined as 61% in [5] (Model P6-P10, IP*); 55% in [5] (Model P9, intravitreal, 10 mg/ml); 1% in data set [6] (1 mg/ml); 23% in data set [6] (10 mg/ml). Further, in [6] (1 mg/ml), the “Initial Evaluation” value is listed as “+ (one plus being detectable regression judged to be approximately 25 percent or less)”. Moreover, in [3], the inhibition at 0.05 µM was determined as 79%.
